Laboratory results published in ChEMBL document CHEMBL5126528, “Recent strategies targeting Embryonic Ectoderm Development (EED) for cancer therapy: Allosteric inhibitors, PPI inhibitors, and PROTACs” (Eur J Med Chem, 2022).
Converted amounts (≈) assume the structure as drawn. Counter-ions that a name gives are not always drawn.

Columns and labels:
KARPAS-422 = assay: Antiproliferative activity against human KARPAS-422 cells treated for 11 days; type: functional, cell-based; details: KARPAS-422, 264 h
Polycomb protein EED [1] = molecular target: T1, Polycomb protein EED (Homo sapiens, UniProt O75530); assay: Inhibition of EED (unknown origin)
Target sequence in this assay (O75530 whole entry): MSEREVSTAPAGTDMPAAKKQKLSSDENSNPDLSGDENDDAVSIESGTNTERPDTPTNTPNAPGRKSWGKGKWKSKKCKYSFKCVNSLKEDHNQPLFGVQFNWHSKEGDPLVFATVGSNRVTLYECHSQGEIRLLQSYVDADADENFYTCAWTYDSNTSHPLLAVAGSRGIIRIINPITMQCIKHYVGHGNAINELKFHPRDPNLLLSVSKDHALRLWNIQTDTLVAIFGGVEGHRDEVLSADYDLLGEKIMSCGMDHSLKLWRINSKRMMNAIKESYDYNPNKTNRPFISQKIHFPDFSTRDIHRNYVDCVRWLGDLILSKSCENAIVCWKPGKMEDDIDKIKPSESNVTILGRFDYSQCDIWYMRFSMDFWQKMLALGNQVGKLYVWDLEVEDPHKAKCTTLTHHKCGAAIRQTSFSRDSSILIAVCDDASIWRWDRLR

Pfeiffer = assay: Antiproliferative activity against human Pfeiffer cells treated for 14 days; type: functional, cell-based; details: 336 h
BC [2] = assay: Inhibition of cell growth in human multiple BC cells bearing EZH2 […] mutant; type: functional, cell-based
Lymphoma cell line [3] = assay: Inhibition of cell growth in human Lymphoma cell line bearing EZH2 […] mutant; type: functional, cell-based
BC [4] = assay: Inhibition of cell growth in human multiple BC cells bearing wildtype EZH2; type: functional, cell-based
Lymphoma cell line [5] = assay: Inhibition of cell growth in human Lymphoma cell line bearing wildtype EZH2; type: functional, cell-based
[6] = Oral bioavailability in CD-1 mouse; type: ADME, organism-based; details: in vivo
[7] = Inhibition of PRC2 HMTase activity in human G-401 cells using nucleosome core particles as substrate in presence of activation peptide H3K27me3 (21 to 44 residues)
[8] = Solubility of the compound at pH 7.4; type: physicochemical; details: buffer
Polycomb protein EED [9] = molecular target: T1, Polycomb protein EED; assay: Binding affinity to EED (unknown origin) assessed as dissociation constant by SPR analysis
Target sequence in this assay (O75530 whole entry): as above

[10] = Inhibition of PRC2 (unknown origin); parameters: species or system Homo sapiens
[11] = Inhibition of FITC-labeled EZH2 (39 to 63 residues) (unknown origin)/N-terminal 6x His-tagged human EED protein interaction by incubated for 2 hrs FP-based competitive assay
Polycomb protein EED [12] = molecular target: T1, Polycomb protein EED; assay: Binding affinity to full length EED (unknown origin) assessed as increase in melting temperature at 50 uM incubated for 30 mins by TSA; details: tested as the 2H-labelled form
Target sequence in this assay (O75530 2-441 limits assumed): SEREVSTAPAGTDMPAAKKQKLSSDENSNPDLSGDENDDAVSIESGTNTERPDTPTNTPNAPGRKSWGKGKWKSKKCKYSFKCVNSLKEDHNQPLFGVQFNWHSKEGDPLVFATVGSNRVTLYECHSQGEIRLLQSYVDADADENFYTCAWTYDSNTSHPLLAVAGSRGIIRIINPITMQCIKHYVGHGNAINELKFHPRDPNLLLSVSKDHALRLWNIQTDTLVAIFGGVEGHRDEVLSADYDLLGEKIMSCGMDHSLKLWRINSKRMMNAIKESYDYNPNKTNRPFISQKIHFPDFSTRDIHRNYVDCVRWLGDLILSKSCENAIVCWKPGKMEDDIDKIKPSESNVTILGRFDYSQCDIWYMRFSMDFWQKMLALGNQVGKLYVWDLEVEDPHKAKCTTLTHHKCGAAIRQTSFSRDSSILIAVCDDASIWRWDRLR

Polycomb protein EED [13] = molecular target: T1, Polycomb protein EED; assay: Binding affinity to full length EED (unknown origin) assessed as increase in melting temperature at 100 uM incubated for 30 mins by TSA; details: tested as the 2H-labelled form
Target sequence in this assay (O75530 2-441 limits assumed): as above

Homo sapiens = species on record: Homo sapiens; assay: Inhibition of GST-tagged EZH2/FLAG-tagged EED (unknown origin) protein protein interaction at 100 uM incubated for 1 hr by AlphaLISA method relative to control
Polycomb protein EED [14] = molecular target: T1, Polycomb protein EED; assay: Binding affinity to EED (unknown origin) assessed as dissociation constant
Target sequence in this assay (O75530 whole entry): as the sequence (O75530 whole entry) above

[15] = Binding affinity to EZH2-EED (unknown origin) protein interaction assessed as inhibition constant by FP binding assay; parameters: species or system Homo sapiens
[16] = Inhibition of EZH2-EED (unknown origin) protein interaction by FP binding assay; parameters: species or system Homo sapiens
[17] = Inhibition of GST-tagged EZH2/FLAG-tagged EED (unknown origin) protein protein interaction incubated for 1 hr by AlphaLISA method; parameters: species or system Homo sapiens
Polycomb protein EED [18] = molecular target: T1, Polycomb protein EED; details: dose 500.0 µM
Target sequence in this assay (O75530 2-441 limits assumed): as the sequence (O75530 2-441 limits assumed) above
Description: Binding affinity to GST-tagged EED (unknown origin) assessed as thermal stability by measuring melting temperature at 500 uM by TSA method

With `CCS(=O)(=O)N1CC=C(c2cnc(NCC3Cc4cc(F)ccc4O3)n3cnnc23)CC1` (configuration not stated) as the compound, how does the IC50 (KARPAS-422) read?
Its IC50 is 4 nM.

And the IC50 (Polycomb protein EED [1])?
The IC50 was < 20 nM.

What about the IC50 (Pfeiffer) of the same compound?
The IC50 was 0.8 nM.

With `Cc1cc(-c2cnc(NCC3Cc4cc(F)ccc4O3)n3cc(C#N)nc23)n(C)n1` (configuration not stated) as the compound, how does the IC50 (Polycomb protein EED [1]) read?
Its IC50 is < 100 nM.

With `C=CC(=O)Nc1cc(Nc2nccc(-c3cn(C)c4ccccc34)n2)c(OC)cc1N(C)CCN(C)C` [OSIMERTINIB] as the compound, how does the IC50 (BC [2]) read?
Its IC50 is 15 nM.

What about the IC50 (Lymphoma cell line [3]) of the same compound?
The IC50 was 15 nM.

And the IC50 (BC [4])?
The IC50 was 15 nM.

What about the IC50 (Lymphoma cell line [5]) of the same compound?
The IC50 was 15 nM.

What does the source list for `CS(=O)(=O)c1ccc(-c2cnc(NCc3ccco3)n3cnnc23)cc1`?
IC50 (Polycomb protein EED [1]): 20 nM; F [6]: 10%; IC50 [7]: 220 nM

Which results are given for `Cc1ncccc1-c1cnc(NCc2c(F)cc(C#N)c3c2CCO3)n2cnnc12`?
solubility [8]: 3 µM (≈ 1.2 µg/mL); Kd (Polycomb protein EED [9]): 15 nM; IC50 [10]: 102 nM

What does the source list for `Cc1ncccc1-c1cnc(NCc2c(F)cc(F)c3c2CCO3)n2cnnc12`?
solubility [8]: 4 µM (≈ 1.58 µg/mL); Kd (Polycomb protein EED [9]): 1.2 nM; IC50 [10]: 11 nM

For `Cc1ccc(C(C2=C(O)CC(C)(C)CC2=O)C2C(=O)CC(C)(C)CC2=O)s1` (configuration not stated), which IC50 [11] is on record?
Its IC50 is 63800 nM.

With `Cc1ncccc1-c1cnc(NCc2c(F)ccc3c2CCO3)n(C)c1=O` as the compound, how does the ΔTm (Polycomb protein EED [12]) read?
Its ΔTm is 6 °C.

What about the ΔTm (Polycomb protein EED [13]) of the same compound?
Its ΔTm is 10 °C.

Which results are given for `Cc1ncccc1-c1cnc(NCc2c(F)cc(Cl)c3c2CCO3)n2cnnc12`?
solubility [8]: 0.2 µM (≈ 0.0822 µg/mL); Kd (Polycomb protein EED [9]): 2.4 nM; IC50 [10]: 16 nM

For `O=C(CC1S/C(=N\c2ccccc2F)N(Cc2ccc3c(c2)OCO3)C1=O)Nc1ccc(C(=O)O)cc1` (configuration not stated), which inhibition (Homo sapiens) is on record?
Its inhibition is 49%.

For `Cc1ncccc1-c1cnc(NCc2c(F)cc(N)c3c2CCO3)n2cnnc12`, which Kd (Polycomb protein EED [9]) is on record?
Its Kd is 0.5 nM.

And the IC50 [10]?
Its IC50 is 50 nM.

Which Kd (Polycomb protein EED [14]) does the source give for `Cc1ncccc1-c1cc2c(n3cnnc13)NCc1c(F)ccc3c1[C@H](CO3)CO2` [POCIREDIR] here?
The Kd was 163 nM.

Which IC50 (Polycomb protein EED [1]) does the source give for `Cc1ncccc1-c1cnc(NCC2Cc3cc(F)ccc3O2)c2cncnc12` (configuration not stated) here?
Its IC50 is < 100 nM.

For `CS(=O)(=O)N1CC=C(c2cnc(NCC3Cc4cc(F)ccc4O3)n3cnnc23)CC1` (configuration not stated), which IC50 (KARPAS-422) is on record?
The IC50 was 13 nM.

And the IC50 (Polycomb protein EED [1])?
The IC50 was < 20 nM.

And the IC50 (Pfeiffer)?
Its IC50 is 1 nM.

Which results are given for `CN1CCc2cccc3c2[C@H]1Cc1ccc(O)c(O)c1-3` [APOMORPHINE HYDROCHLORIDE]?
Ki [15]: 2900 nM; IC50 [16]: 15500 nM

Which IC50 [17] does the source give for `CCOc1ccc(C(=O)CSc2nnc(-c3ccc(O)cc3)c(-c3ccc(O)cc3)n2)cc1NC(=O)CC` here?
The IC50 was 64000 nM.

With `CN(C)[C@@H]1CN(C2CCc3cccc(F)c32)C[C@H]1c1ccc(N2CCN(S(C)(=O)=O)CC2)cc1` (some centres not stated) as the compound, how does the ΔTm (Polycomb protein EED [18]) read?
Its ΔTm is 18 °C.

With `O=C1Nc2ccc(S(=O)(=O)NCCCCCCNS(=O)(=O)c3ccc4c5c(cccc35)C(=O)N4)c3cccc1c23` as the compound, how does the inhibition (Homo sapiens) read?
Its inhibition is 84%.

For `Cc1ncccc1-c1cnc(NCC2Cc3cc(F)ccc3O2)c2nncn12` (configuration not stated), which IC50 (Polycomb protein EED [1]) is on record?
Its IC50 is < 100 nM.
